In ChEMBL document CHEMBL1148744, “Synthesis and antiviral and cytostatic evaluations of the new C-5 substituted pyrimidine and furo[2,3-d]pyrimidine 4',5'-didehydro-L-ascorbic acid derivatives” (J Med Chem, 2007) one finds MIC data, which are given here for 4 molecules.

Converted amounts (≈) assume the structure as drawn.

The test system of the test is Vaccinia virus. The experiment in a line: Antiviral activity against Vaccinia virus in HEL cells assessed as reduction of virus-induced cytopathogenicity. The class given is functional. Particulars: Orthopoxvirus vaccinia.
As to `O=c1[nH]c(=O)n([C@H]2C[C@H](O)[C@@H](CO)O2)cc1/C=C/Br` [BRIVUDINE], the MIC came out at 2 µM (≈ 0.666 µg/mL).
Under `NC(=O)c1ncn([C@@H]2O[C@H](CO)[C@@H](O)[C@H]2O)n1` [RIBAVIRIN] stands 150 µM (≈ 36.6 µg/mL); under `Nc1nc2c(ncn2COCCO)c(=O)[nH]1` [ACYCLOVIR], greater than 250 µM.
As to `Nc1nc2c(ncn2COC(CO)CO)c(=O)[nH]1` [GANCICLOVIR], the MIC was 100 µM (≈ 25.5 µg/mL).
